Laboratory results published in publication PMC7035787 (Molecular pharmaceutics, 2019).

What was measured:
[1] = Pulmonary retention in isolated perfused rat lung; assay type: in vitro ADME; settings: rat, 3 mg/kg, 2 h
[2] = test system: lungs from sham and PAH rats; experiment: Pulmonary retention in isolated perfused rat lung; assay type: in vitro ADME; settings: IT route, sham and PAH lungs
in vivo = settings: male, Sprague-Dawley, rat, 3 mg/kg

recovery at 2 h ([1]; IPRL tubes (circuitry), other: intratracheal (IT) via the tracheal cannula, pH 7.4, recovery dose (%) IPRL tubes, IT route, PAH lungs, by subtraction from dose): 16.6 ± 7.7%
recovery at 2 h ([1]; IPRL tubes (circuitry), other: intratracheal (IT) via the tracheal cannula, pH 7.4, recovery dose (%) IPRL tubes, IT route, Sham lungs, by subtraction from dose): 7.4 ± 1%
recovery at 2 h ([1]; lung homogenate, other: intratracheal (IT) via the tracheal cannula, pH 7.4, recovery dose (%) lung, IT route, PAH lungs, fasudil 3 mg/kg): 70.1 ± 7.3%
recovery at 2 h ([1]; lung homogenate, other: intratracheal (IT) via the tracheal cannula, pH 7.4, recovery dose (%) lung, IT route, Sham lungs, fasudil 3 mg/kg): 71.8 ± 2%
recovery at 2 h ([1]; lung homogenate, other: via the cannulated pulmonary artery, mimicking IV, pH 7.4, recovery dose (%) lung, IV-mimicking route, PAH lungs, fasudil 3 mg/kg): 49.6 ± 6.2%
recovery at 2 h ([1]; lung homogenate, other: via the cannulated pulmonary artery, mimicking IV, pH 7.4, recovery dose (%) lung, IV-mimicking route, Sham lungs, fasudil 3 mg/kg): 34.7 ± 3.2%
recovery at 2 h ([1]; perfusate, other: intratracheal (IT) via the tracheal cannula, pH 7.4, recovery dose (%) perfusate, IT route, PAH lungs, fasudil 3 mg/kg): 13.3 ± 2.6%
recovery at 2 h ([1]; perfusate, other: intratracheal (IT) via the tracheal cannula, pH 7.4, recovery dose (%) perfusate, IT route, Sham lungs, fasudil 3 mg/kg): 20.8 ± 2.7%
recovery at 2 h ([1]; perfusate, other: via the cannulated pulmonary artery, mimicking IV, pH 7.4, recovery dose (%) perfusate, IV-mimicking route, PAH lungs, fasudil 3 mg/kg): 39.1 ± 3.9%
recovery at 2 h ([1]; perfusate, other: via the cannulated pulmonary artery, mimicking IV, pH 7.4, recovery dose (%) perfusate, IV-mimicking route, Sham lungs, fasudil 3 mg/kg): 56.5 ± 5.3%
drug concentration in the perfusate [2]: about 10 μg/mL
AUC(0-inf) (in vivo): 5967 ± 25.9 ng·h/mL
Cmax (in vivo; inhaled or intranasal): 3040 ± 635 ng/mL
AUC(0-inf) (in vivo; iv): 5967 ± 25.9 ng·h/mL
SMILES: O=S(=O)(c1cccc2cnccc12)N1CCCNCC1 [plain fasudil, fasudil]
